Laboratory results published in PMC8623179, “Design and Microwave Synthesis of New (5Z) 5-Arylidene-2-thioxo-1,3-thiazolinidin-4-one and (5Z) 2-Amino-5-arylidene-1,3-thiazol-4(5H)-one as New Inhibitors of Protein Kinase DYRK1A” (Pharmaceuticals, 2021).
Like-named read-outs stand apart in the source and are kept apart here.

How the values were obtained:
DYRK1A [1] = biological target: T1, DYRK1A (Rattus norvegicus, UniProt Q63470); test: DYRK1A kinase assay; type: biochemical; conditions: Table 4; 15 μM ATP
T1 construct: GST; made in house; host or cells: Escherichia coli
Description: (§1) The twenty-two (5Z) 5-arylidene-2-thioxo-1,3-thiazolidin-4-ones 3a–v and the twenty-four (5Z) 2-amino-5-arylidene-1,3-thiazolidin-4(5H)-ones 5a–x were evaluated against four different and representative in vitro kinase assays DYRK1A (dual specificity tyrosine phosphorylation regulated kinase), CK1 δ/e (caseine kinase 1), CDK5/p25 (cyclin dependant kinase), and GSK3 α/β (glycogen synthase kinase 3) to evaluate their inhibition potency. […] All the compounds were initially tested at a 10 μM concentration.
After 30-min incubation at 30 °C, the reaction was stopped by harvesting, using a FilterMate harvester (Packard), onto P81 phospho-cellulose papers (GE Healthcare, Chicago, IL, USA) which were washed in 1% phosphoric acid. Scintillation fluid was added and the radioactivity measured in a Packard counter. Blank values were subtracted and activities calculated as pmoles of phosphate incorporated for the 30-min incubation. The activities were expressed in % of the maximal activity, i.e., in the absence of inhibitors. Controls were performed with appropriate dilutions of DMSO. […]

Casein kinase 1 (CK1δ/ε) = test: CK1δ/ε kinase assay; type: biochemical, porcine; conditions: Table 4; 15 μM ATP; read-out: IC50 CK1
Description: as §1
(§2) After 30-min incubation at 30 °C, the reaction was stopped by harvesting, using a FilterMate harvester (Packard), onto P81 phospho-cellulose papers (GE Healthcare, Chicago, IL, USA) which were washed in 1% phosphoric acid. Scintillation fluid was added and the radioactivity measured in a Packard counter. Blank values were subtracted and activities calculated as pmoles of phosphate incorporated for the 30-min incubation. The activities were expressed in % of the maximal activity, i.e., in the absence of inhibitors. Controls were performed with appropriate dilutions of DMSO.
Casein kinase 1 (CK1δ/ε) (porcine brain, native) was assayed with 0.67 µg of CKS peptide ([…]pSAYSITA), a CK1 specific substrate obtained from Millegen (Labege, France).

CDK5/p25 = biological target: T2, CDK5/p25 (Homo sapiens, UniProt Q00535); test: CDK5/p25 kinase assay; type: biochemical; conditions: Table 4; 15 μM ATP
T2 construct: made in house
Description: as §1, §2
CDK5/p25 (human, recombinant) was prepared as previously described. […] ATP (3000 Ci/mmol; 10 mCi/mL) in a final volume of 30 μL. After 30-min incubation at 30 °C, 25 μL aliquots of supernatant were spotted onto 2.5 × 3 cm pieces of Whatman P81 phospho-cellulose paper, and, 20 s later, the filters were washed five times (for at least 5 min each time) in a solution of 10 mL phosphoric acid/litter of water. The wet filters were counted in the presence of 1 mL ACS (Amersham, UK) scintillation fluid.

DYRK1A [2] = conditions: reported, cited from earlier work
GSK-3α/β = GSK-3α/β kinase assay; type: biochemical, porcine; conditions: Table 4; 15 μM ATP; read-out: IC50 GSK3α/β
Description: as §1, §2
GSK-3α/β (porcine brain, native) was assayed, as described for CDK5/p25 but in Buffer A and using a GSK-3 specific substrate (GS-1: […]pEDEEE) (pS stands for phosphorylated serine). GS-1 was synthesized by Millegen (Labege, France).

Huh7 D12 = test: Cell survival assay, Huh7 D12; type: cell-based; conditions: Huh-7D12; 48 h exposure, nuclei count; read-out: Cell Lines IC50 Huh7 D12
Description: (§3) Skin diploid fibroblastic cells were provided by BIOPREDIC International Company (Rennes, France). […] Cells were grown according to ECACC recommendations. The toxicity test of the compounds on these cells was as follows: 2 × 10^3 cells for HCT-116 cells or 4 × 10^3 for the other cells were seeded in 96-multi-well plates in triplicate and left for 24 h for attachment, spreading and growing. Then, cells were exposed for 48 h to increasing concentrations of the compounds, ranging from […], in a final volume of 120 μL of culture medium. […] The IC50 were graphically determined.

Caco2 = test: Cell survival assay, Caco2; type: cell-based; conditions: Homo sapiens, Caco-2
Description: as §3

MDA-MB231 = test: Cell survival assay, MDA-MB231; type: cell-based; conditions: Homo sapiens, MDA-MB-231; 48 h exposure, nuclei count; read-out: Cell Lines IC50 MDA-MB231
Description: as §3

HCT116 = test: Cell survival assay, HCT116; type: cell-based; conditions: Homo sapiens, HCT-116
Description: as §3

PC3 = test: Cell survival assay, PC3; type: cell-based; conditions: Homo sapiens, PC-3; 48 h exposure, nuclei count; read-out: Cell Lines IC50 PC3
Description: as §3

NCI-H727 = test: Cell survival assay, NCI-H727; type: cell-based; conditions: Homo sapiens, 48 h exposure, nuclei count, read-out: Cell Lines IC50 NCI-H727
Description: as §3

Fibroblasts = test: Cell survival assay, normal skin diploid fibroblasts; type: cell-based; conditions: Fibroblast; normal cells, 48 h exposure, nuclei count; read-out: Cell Lines IC50 Fibroblasts
Description: as §3

[3] = 48 h exposure, nuclei count, read-out: Cell Lines IC50 Caco2
[4] = 48 h exposure, nuclei count, read-out: Cell Lines IC50 HCT116

T2 sequence (Q00535 whole entry): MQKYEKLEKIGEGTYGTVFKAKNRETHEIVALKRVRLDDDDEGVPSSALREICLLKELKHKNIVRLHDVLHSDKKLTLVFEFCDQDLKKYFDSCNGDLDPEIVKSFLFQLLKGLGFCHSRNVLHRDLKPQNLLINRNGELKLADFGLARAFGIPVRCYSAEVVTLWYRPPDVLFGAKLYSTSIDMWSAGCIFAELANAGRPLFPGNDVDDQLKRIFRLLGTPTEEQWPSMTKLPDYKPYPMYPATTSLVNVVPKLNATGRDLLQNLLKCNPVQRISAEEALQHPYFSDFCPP
T2 sequence (Q15078 99-307 partner limits assumed): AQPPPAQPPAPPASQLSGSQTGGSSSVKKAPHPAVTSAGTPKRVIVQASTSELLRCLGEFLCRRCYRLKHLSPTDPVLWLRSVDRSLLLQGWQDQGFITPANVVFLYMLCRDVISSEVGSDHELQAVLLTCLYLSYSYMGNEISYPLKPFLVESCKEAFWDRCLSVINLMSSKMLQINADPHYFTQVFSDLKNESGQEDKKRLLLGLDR

Compound	IC50 (DYRK1A [1])	IC50 (Casein kinase 1 (CK1δ/ε))	IC50 (CDK5/p25)	melting point	IC50 (DYRK1A [2])	IC50 (GSK-3α/β)	IC50 (Huh7 D12)	IC50 (Caco2; [3])	IC50 (MDA-MB231)	IC50 (HCT116; [4])	IC50 (PC3)	IC50 (NCI-H727)	IC50 (Fibroblasts)	IC50 (Caco2; read-out: IC50 Caco2)	IC50 (HCT116; read-out: IC50 HCT 116)	IC50 (DYRK1A [2]; Figure 1)
O=C1NC(=S)S/C1=C\c1cc2ccccc2o1 [Compound 3l, (5Z)-5-(1-Benzofuran-2-ylmethylene)-2-thioxo-1,3-thiazolidin-4-one]	15 µM	> 10 µM	> 10 µM	246 to 250 °C												
CN(Cc1cccs1)c1ncnc2ccc(-c3ccc4c(c3)OCO4)cc12 [VI]					0.014 µM											
Nc1ncc(I)c(-c2c[nH]c3ccccc23)n1 [Meridianine 74]					0.066 µM											
O=C1NC(=S)S/C1=C\c1ccc2c(c1)OCCO2 [Compound 3f, (5Z)-5-(2,3-Dihydro-1,4-benzodioxin-6-ylmethylene)-2-thioxo-1,3-thiazolidin-4-one]	0.056 µM	> 10 µM	> 10 µM	250 to 252 °C		≤ 10 µM	> 25 µM	> 25 µM	> 25 µM	> 25 µM	> 25 µM	> 25 µM	> 25 µM			
O=C1NC(=S)S/C1=C\c1ccc2c(c1)OCO2 [Compound 3a, (5Z)-5-(1,3-Benzodioxol-5-ylmethylene)-2-thioxo-1,3-thiazolidin-4-one]	0.07 µM	> 10 µM	> 10 µM			8.5 µM	> 25 µM	> 25 µM	> 25 µM	> 25 µM	> 25 µM	> 25 µM	> 25 µM			
O=C1NC(=S)S/C1=C\c1cc(Br)c2c(c1)OCO2 [Compound 3i, (5Z)-5-[(7-Bromo-1,3-benzodioxol-5-yl)methylene]-2-thioxo-1,3-thiazolidin-4-one]	0.7 µM	> 10 µM	> 10 µM	> 260 °C		> 10 µM										
COc1cc(/C=C2\SC(=S)NC2=O)ccc1O [Compound 3c, (5Z)-5-(4-Hydroxy-3-methoxybenzylidene)-2-thioxo-1,3-thiazolidin-4-one]	0.064 µM	≥ 10 µM				8 µM	> 25 µM	> 25 µM	> 25 µM	12 µM	> 25 µM	> 25 µM	> 25 µM			
O=C1NC(=S)S/C1=C\c1cc(O)cc(O)c1 [Compound 3k, (5Z)-5-(3,5-Dihydroxybenzylidene)-2-thioxo-1,3-thiazolidin-4-one]	> 10 µM	> 10 µM	> 10 µM	230 to 232 °C		> 10 µM										
O=C1NC(=S)S/C1=C\c1ccc2c(c1)CCO2 [Compound 3g, (5Z)-5-(2,3-Dihydro-benzofuran-5-ylmethylene)-2-thioxo-1,3-thiazolidin-4-one]	0.09 µM	> 10 µM	> 10 µM	250 to 252 °C		≥ 10 µM	> 25 µM	> 25 µM	> 25 µM	> 25 µM	> 25 µM	> 25 µM	> 25 µM	8 µM	6 µM	
COc1cc(C)c(-c2c3c4cc(OC)c(O)cc4oc(=O)c3n3ccc4cc(O)c(OC)cc4c23)cc1O [XII]					0.042 µM											
O=C1NC(=S)S/C1=C\c1ccc(O)c(O)c1 [Compound 3j, (5Z)-5-(3,4-Dihydroxybenzylidene)-2-thioxo-1,3-thiazolidin-4-one]	> 10 µM	> 10 µM	> 10 µM	210 to 212 °C		> 10 µM										
O=C1NC(Nc2ccccc2)=N/C1=C\c1ccc2c(c1)OCO2 [Leucettine L41]																0.04 µM
